Results from patent US6699894B1, “Methods for treatment of inflammatory bowel disease” (OSI Pharmaceuticals, Inc., priority 2001, dated 2004).
Structures can show the parent of a compound that is named as a salt. Where two headings read alike, the source gives them in different places.

How the values were obtained:
PDE1 = experiment: PDE inhibition: PDE1; format: biochemical; settings: similar protocols
dogs [1] = experiment: 91-day oral study in dogs; format: in vivo
rats [2] = experiment: Acute toxicity study in rats; settings: rat, in vivo
patients = experiment: Single, escalating dose human clinical safety trial; format: in vivo; settings: oral, 50 mg BID, 100 mg BID, 200 mg BID and 400 mg BID
rats [3] = experiment: Seven-day dose-range finding study in rats; format: in vivo; settings: 7 days
dogs with IBD = experiment: Efficacy trial in dogs with IBD; format: in vivo
From the text: IBD in humans is quite similar to IBD in dogs. […] In fact, the IBD treatments used in dogs are very similar to those used in humans, and the success rates are similarly disappointing. The number of dogs with IBD is estimated to be in the millions in the U.S. Feline IBD is also quite common.
The pre-drug history and results achieved with the drug in each dog are as follows: […]

[4] = molecular target: T1, GST-cGB-PDE5 fusion protein (Homo sapiens, UniProt O76074); experiment: cGMP binding assay with GST-cGB-PDE5 fusion protein; settings: for competition with cGMP binding at high concentration: test substance 100 μM vs cGMP 2 μM
T1 construct: made in house; host or cells: E. coli BL21 (DE3)
Procedure: 5′-3′, Inc. kits for total RNA followed by oligo (dT) column purification of mRNA are used with HT-29 cells. […] It is then cloned into pGEX-5X-3 glutathione-S-transferase (GST) fusion vector (Pharmacia Biotech) with tac promoter, and EcoRI and XhoI cut sites. The fusion vector is then transfected into E. Coli BL21 (DE3) bacteria (Invitrogen). The transfected BL21 bacteria is grown to log phase, and then IPTG is added as an inducer. The induction is carried at 20° C. for 24 hrs. The bacteria are harvested and lysed. The soluble cell lysate is incubated with GSH conjugated Sepharose 4B (GSH-Sepharose 4B). The GST-cGB-PDE5 fusion protein can bind to the GSH-Sepharose beads, and the other proteins are washed off from beads with excessive cold PBS.
Then, the mixture is transferred to Brandel MB-24 cell harvester with GF/B as the filter membrane followed by 2 washes with 10 mL of cold 5 mM potassium buffer(pH 6.8). The membranes are then cut out and transferred to scintillation vials followed by the addition of 1 mL of H2O and 6 mL of Ready Safe™ liquid scintillation cocktail to each vial. The vials are counted on a Beckman LS 6500 scintillation counter.
The quenching by filter membrane or other debris are also calibrated.

PDE4 = experiment: PDE inhibition: PDE4; format: biochemical; settings: similar protocols
PDE 5 = PDE 5 (Homo sapiens, UniProt O76074); experiment: Competitive binding (with cGMP) to PDE5
dogs [5] = experiment: Acute and seven-dose toxicity in dogs (capsules); settings: dog, in vivo
Procedure: Therefore, these dogs were subsequently administered seven consecutive doses of 1000 mg/kg/day.

rats [6] = experiment: 91-day long-term safety assessment study in rats; format: in vivo
From the text: These changes were not associated with any gross clinical abnormality.

rats [7] = experiment: 28-day study in rats; format: in vivo
Procedure: A 28-day study in rats was also carried out at 0, 50, 500 and 2000 mg/kg/day.

native bovine PDE5 = native bovine PDE5 (Bos taurus, UniProt Q28156); settings: read-out: Kd of cGMP binding to native bovine PDE5; cited from earlier work
[8] = 91 days, highest dose group (300 mg/kg/day)
[9] = 28 days, 50, 500 and 2000 mg/kg/day

CC1=C(CC(=O)NCc2ccccc2)c2cc(F)ccc2/C1=C\c1ccncc1 [Example 38, (Z)-5-Fluoro-2-Methyl-(4-Pyridylidene)-3-(N-Benzyl)Indenylacetamide Hydrochloride]
IC50 (PDE1): 3 µM | tolerability (dogs [1]; 91 days): well tolerated | feces observation (dogs [1]; 91 days, 150 and 300 mg/kg/day): Orange discoloration of the feces | microscopic alterations of liver (dogs [1]; 91 days, highest dose group): no microscopic alterations | body weights (dogs [1]; [8]): Slightly lowered body weights | liver weights (dogs [1]; [8]): increased liver weights | toxicological effects overall (dogs [1]; oral, 91 consecutive days, 50, 150 and 300 mg/kg/day): no toxicological effects | route of elimination (suggested by feces colour) (dogs [1]; oral, 91 days): most of Compound 38 was being eliminated via the feces | acute toxicity on a single-dose basis (rats [2]): not acutely toxic | body weight gain (rats [2]; ip, 1000 mg/kg): reduced body weight gain | necropsy finding (rats [2]; ip, 1000 mg/kg): mesenteric adhesions seen in some animals | body weight gains (rats [2]; po, 2000 mg/kg): slightly reduced | side effects (patients): no significant side effects at any dose | signs of toxicity (rats [3]; 50 mg/kg/day): no observable signs of toxicity | treatment-related effects (rats [3]; 500 mg/kg/day): increase in absolute and relative liver weights in female rats | treatment-related effects (rats [3]; 2000 mg/kg/day): labored breathing and/or abnormal respiratory sounds, decreased weights gains and food consumption in male rats, and increased liver weights in female rats | hematology, blood chemistry, microscopic pathology (rats [3]; any dose level (50, 500, 2000 mg/kg/day)): No hematological or blood chemistry changes nor any microscopic pathology changes | body weight regained, Dog #1 (dogs with IBD; Dog #1, 12 weeks of 800 mg BID): at least 13 lbs. | histopathological change, Dog #1 (dogs with IBD; Dog #1, 12 weeks of 800 mg BID): significant histopathological improvement | body weight, Dog #1 (dogs with IBD; Dog #1, Month 8 (start), after 12 weeks of treatment, 46 lbs at Month 3 (middle)): 60 lbs | small intestine histopathology after treatment, Dog #1 (dogs with IBD; Dog #1, after 12 weeks of treatment, FIGS. 2 and 4): closely mimics normal canine small intestinal tissue | blood protein levels, Dog #2 (dogs with IBD; Dog #2, after 7 weeks 400 mg BID): returned to normal | blood protein levels, Dog #3 (dogs with IBD; Dog #3, 400 mg BID): gradually returned to within normal limits | stool, Dog #4 (dogs with IBD; Dog #4, after 7 weeks 800 mg BID, owner report): normal size stool with no mucus | outcome, Dog #6 (dogs with IBD; after 7 weeks 800 mg BID, late stage abdominal neoplastic disease discovered post-mortem): Euthanized | clinical status, Dog #5 (dogs with IBD; chronic IBD, 7 weeks 800 mg BID without conventional IBD treatments): significantly improved and completely normal | clinical status, Dog #4 (dogs with IBD; chronic IBD, conventional therapy withdrawn, 7 weeks 800 mg BID): completely clinically normal with no signs of IBD | stools, Dog #7 (dogs with IBD; chronic IBD, tylosin stopped, after one week on drug, then withdrawn by owner): normal stools began to be formed | clinical status, Dog #2 (dogs with IBD; moderate IBD (plasmacytic enteritis), two weeks conventional therapy, then 7 weeks 400 mg BID alone): Clinically normal | clinical status, Dog #3 (dogs with IBD; protein-losing enteropathy with IBD, 7 weeks 400 mg BID with intermittent metronidazole, no prednisone): clinically normal | clinical status in first 30 days, Dog #6 (dogs with IBD; severe IBD, conventional treatment withdrawn, 800 mg BID, first 30 days, owner report): playful, active and clinically normal | clinical status, Dog #1 (dogs with IBD; severe lymphoplasmacytic enteritis, 6 weeks conventional therapy plus 800 mg BID, then 6 weeks 800 mg BID alone): became clinically normal | binding to the cGMP binding sites of GST-cGB-PDE5 / PDE5 [4]: does not bind to the cGMP-binding site of PDE5 | IC50 (PDE4): 6 µM | competitive (with cGMP) binding to PDE 5 (PDE 5): does competitively (with cGMP) bind to PDE 5 | signs of toxicity (dogs [5]; 1000 mg/kg): no signs of toxicity | signs of drug-related effects (dogs [5]; 1000 mg/kg/day): At no time in either dosing phase were any obvious signs of drug-related effects observed | clinical biochemistry and hematology (rats [6]; 91 days): no changes in clinical biochemistry and hematology were evident | microscopic finding, follicular cells (rats [6]; 91 days, 500 mg/kg/day): follicular cell hypertrophy | microscopic finding, kidneys (rats [6]; 91 days, 200 and 500 mg/kg/day): increase in accumulation of hyalin droplets in the kidneys | microscopic finding, liver (rats [6]; 91 days, 200 and 500 mg/kg/day): slight hepatocellular hypertrophy | liver and thyroid/parathyroid weights (rats [6]; 91 days, males and females at 200 and 500 mg/kg/day): dose-related trend to increased liver and thyroid/parathyroid weights | toxicological effects overall (rats [6]; oral, 91 consecutive days, 50, 200 and 500 mg/kg/day): did not produce any major toxicological effects | macroscopic tissue changes at necropsy (rats [7]; 28 days): No macroscopic tissue changes | liver weights (rats [7]; 28 days, 2000 mg/kg/day): statistically significant increase | thyroid weights (rats [7]; 28 days, 2000 mg/kg/day): statistically significant increases | body weight changes, ophthalmoscopic examinations, hematological and blood chemistry values and urinalysis (rats [7]; [9]): unremarkable | clinical observations (rats [7]; [9]): no abnormal clinical observations | liver and thyroid weights at the lower doses (rats [7]; 28 days, 50 and 500 mg/kg/day): not statistically significant | histopathological evaluation of tissues (rats [7]; 28 days, generally limited to a small number of animals at 2000 mg/kg/day, one female at 500 mg/kg/day): traces of follicular cell hypertrophy, increased numbers of mitotic figures (suggestive of possible cell proliferation) in the thyroid gland and mild centrilobular hypertrophy in the liver

O=C([O-])C1CCN(c2nc(NCc3ccc4c(c3)OCO4)c3cc(Cl)ccc3n2)CC1.[Na+] [Example E4021]
competition with cGMP in binding of GST-cGB-PDE5 ([4]; 3H-cGMP 2 μM, 22° C., 1 hour): None of the PDE5 inhibitors showed any competition with cGMP

Nc1ccn([C@@H]2O[C@@H]3COP(=O)(O)O[C@H]3[C@H]2O)c(=O)n1 [cCMP]
competition with cGMP in binding of GST-cGB-PDE5 ([4]; 3H-cGMP 2 μM, 22° C., 1 hour): did not compete

Nc1nc2c(nc(Br)n2[C@@H]2O[C@@H]3COP(=O)(O)O[C@H]3[C@H]2O)c(=O)[nH]1 [Example 8-bromo-cGMP, 8-bromo-cGMP]
competition with cGMP binding at high concentration [4]: can partially compete

CC1=C(CC(=O)O)c2cc(F)ccc2/C1=C\c1ccc(S(C)(=O)=O)cc1 [exisulind]
competition with cGMP in binding of GST-cGB-PDE5 ([4]; 3H-cGMP 2 μM, 22° C., 1 hour): None of the PDE5 inhibitors showed any competition with cGMP

O=c1[nH]cnc2c1ncn2[C@@H]1O[C@@H]2COP(=O)(O)O[C@H]2[C@H]1O [Cyclic IMP]
competition with cGMP binding at high concentration [4]: can partially compete

Nc1nc2c(ncn2[C@@H]2O[C@@H]3COP(=O)(O)O[C@H]3[C@H]2O)c(=O)[nH]1 [cGMP, cyclic 3′,5′-guanosine monophosphate]
binding to the cGMP binding sites of GST-cGB-PDE5 / PDE5 [4]: specifically bound | Kd ([4]; read-out: Kd of cGMP binding to GST-cGB-PDE5, two cGMP binding sites): 1.6 ± 0.2 µM | Kd (native bovine PDE5): 1.3 µM

CSc1ccc(/C=C2/C(C)=C(CC(=O)O)c3cc(F)ccc32)cc1 [Sulindac sulfide, sulindac sulfide]
competition with cGMP in binding of GST-cGB-PDE5 ([4]; 3H-cGMP 2 μM, 22° C., 1 hour): None of the PDE5 inhibitors showed any competition with cGMP

CCCCOC1C2OP(=O)(O)OCC2OC1n1cnc2c(N)ncnc21 (stereo not shown) [2′-O-butyl-cAMP]
competition with cGMP in binding of GST-cGB-PDE5 ([4]; 3H-cGMP 2 μM, 22° C., 1 hour): did not compete

CCCCOC1C2OP(=O)(O)OCC2OC1n1cnc2c(=O)[nH]c(N)nc21 (stereo not shown) [2′-O-butyl-cGMP]
competition with cGMP in binding of GST-cGB-PDE5 ([4]; 3H-cGMP 2 μM, 22° C., 1 hour): did not compete

Nc1ncnc2c1ncn2[C@@H]1O[C@@H]2COP(=O)(O)O[C@H]2[C@H]1O [Cyclic AMP]
competition with cGMP in binding of GST-cGB-PDE5 [4]: did not compete

CCCOc1ccccc1-c1nc2nn[nH]c2c(=O)[nH]1 [zaprinast]
competition with cGMP in binding of GST-cGB-PDE5 ([4]; 3H-cGMP 2 μM, 22° C., 1 hour): None of the PDE5 inhibitors showed any competition with cGMP

O=c1ccn([C@@H]2O[C@@H]3COP(=O)(O)O[C@H]3[C@H]2O)c(=O)[nH]1 [cUMP]
competition with cGMP in binding of GST-cGB-PDE5 ([4]; 3H-cGMP 2 μM, 22° C., 1 hour): did not compete
